The numbers were not newly measured in patent publication US20250127863A1, “ANTIMICROBIAL PEPTIDE FOR ONYCHOMYCOSIS” (CBMR SCIENTIFIC NANOSCIENCE B.V., priority 2019, published 2025), which cites them from elsewhere.

The test system of series [1] is onychomycosis. The following applies: systemic use; cited from earlier work.
The subject of series [2] is onychomycosis. The following applies: topical, specialist setting; after 48 weeks of treatment; cited from earlier work.

Turning to `CN(C/C=C/C#CC(C)(C)C)Cc1cccc2ccccc12` [terbinafine], the “(mycological) cure” value in series [1] is reported as 70.9%. Take `Clc1ccc(C(Cn2ccnc2)OCc2ccsc2Cl)c(Cl)c1` (stereo not drawn) [tioconazole]: the cure rates in series [2] is recorded as 22%. Turning to `C=C1CCN([C@H](C)[C@](O)(Cn2cncn2)c2ccc(F)cc2F)CC1` [efinaconazole], the cure rates in series [2] is 15.2-17.8%.
